According to ChEMBL document CHEMBL1158207, “Mauritiamine, a New Antifouling Oroidin Dimer from the Marine Sponge Agelas mauritiana” (1996):
Active and inactive are the calls of the source. The rule behind the calls is not given here.

Tests used:
[1] = system: Microbacterium maritypicum; assay: Antimicrobial activity against Flavobacterium marinotypicum ATCC 19260 at 10 ug/disk after 24 hrs by paper disk method; type: functional; conditions: ATCC 19260, 24 h, read-out: IZ
Ciona savignyi = assay: Promotion of metamorphosis in ascidian Ciona savignyi larvae at 2.5 ug/ml after 10 hrs; type: functional, organism-based

For `NC1=NC(=O)C(/C=C/CNC(=O)c2cc(Br)c(Br)[nH]2)(c2nc(N)[nH]c2/C=C/CNC(=O)c2cc(Br)c(Br)[nH]2)N1` (stereo not drawn) [MAURITIAMINE], the zone of inhibition at 10 µg/disc [1] was 10 mm.

Work on `Nc1ncc(/C=C/CNC(=O)c2cc(Br)c(Br)[nH]2)[nH]1` [OROIDIN] yielded a zone of inhibition at 10 µg/disc [1] of 15 mm.

With `NC(=O)c1cc(Br)c(Br)[nH]1` the Activity (Ciona savignyi) was “Active”.
